For 7 compounds, TGI results are on record in PubChem BioAssay (NCI).

The structures appear in SMILES notation.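 Cells were grown in 96-well plates and exposed to each compound for 48 hours at five concentrations; endpoints were interpolated linearly between bracketing concentrations, or set to the highest concentration if not reached. TGI denotes the concentration required for complete inhibition of growth.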

Common to all, as to assay: inhibition of tumour cell growth, NCI panel, 48 h
The test system of assay [1] is BT-549 breast.
In assay [2] the test system is CCRF-CEM leukemia.
The subject of assay [3] is HOP-92 NSCLC.
For assay [4], the system named is HT29 colon.
Assay [5] has as its system KM20L2 colon.
The test system of assay [6] is MALME-3M melanoma.
In assay [7] the test system is MCF7 breast.
Assay [8] has as its system MDA-MB-231 breast.
The subject of assay [9] is MDA-MB-435.
The subject of assay [10] is NCI-H460 lung.
Assay [11] relates to NCI/ADR-RES ovarian.
Assay [12] deals with OVCAR-3 ovarian.
Assay [13] has as its system OVCAR-4 ovarian.
Assay [14] relates to SK-MEL-5 melanoma.
For assay [15], the system named is SK-OV-3 ovarian.
Assay [16] deals with SNB-19 CNS.
In assay [17] the test system is SNB-75 CNS.
In assay [18] the test system is SW-620 colon.
Assay [19] concerns UACC-257 melanoma.
Assay [20] relates to UO-31 renal.

In the case of `CCN(CC)c1ccc(/C=C2/C[N+](C)(C)C/C(=C/c3ccc(N(CC)CC)cc3)C2=O)cc1`, the TGI is 3.43 µM in assay [1]; 3.42 µM in assay [2]; 4.8 µM in assay [3]; 5.2 µM in assay [4]; 12.9 µM in [5]; 4.38 µM in assay [6]. For the same compound, the TGI in assay [7] is 6.04 µM; in [8] it was 5.87 µM; in assay [9] it was 3.69 µM; in assay [10], 15 µM; in assay [11], over 100 µM; in assay [12] it was 7.31 µM. Also, the TGI was 13.8 µM in assay [13]; 3.62 µM in [14]; over 78.5 µM in assay [15]; 19.4 µM in assay [16]; 8.88 µM in [17]; 13.5 µM in assay [18]. The TGI is 6 µM in assay [19] and over 100 µM in assay [20].
For the compound `CCCOC(=O)C1CCC(=O)N1C(=O)C(C)Cl` (stereo not given), the TGI in assay [2], in assay [3], in assay [4], in assay [5], in [6] and in assay [10] was over 100 µM in each case. Moreover, the TGI in assay [12], in assay [13], in assay [14], in assay [15], in assay [16] and in assay [17] was over 100 µM each time. Also, the TGI in assay [18], in assay [19] and in assay [20] was over 100 µM throughout.
For `CCOc1ccc(NC(=O)C(=O)NO)cc1`, the TGI in assay [2], in assay [3], in [4], in assay [5], in assay [6] and in assay [10] was over 100 µM in each case. Also, the TGI in assay [12], in assay [13], in assay [14], in assay [15], in [16] and in assay [17] was over 100 µM each time. In addition, the TGI in assay [18], in assay [19] and in assay [20] was over 100 µM in each case.
In the case of `CC1OC(n2ccc(=O)[nH]c2=O)C=C(OC(=O)c2ccccc2)C1=O` (stereo not given), the TGI is over 100 µM in assay [2]; 99.6 µM in assay [3]; over 100 µM in assay [4]; over 100 µM in assay [5]; over 100 µM in [6]; over 100 µM in assay [10]. For the same compound, the TGI in assay [12] is 53.4 µM; in assay [13], 36.8 µM; in assay [14] it was over 100 µM; in assay [15], over 100 µM; in [16] it was over 100 µM; in [17], 63.1 µM. Also, the TGI in assay [18], in assay [19] and in assay [20] was over 100 µM each time.
Regarding `Nc1nc2sc3ccccc3c(=O)n2n1`, the TGI in assay [2], in assay [3], in assay [4], in [5], in assay [6] and in assay [10] was over 100 µM throughout. The TGI in assay [12], in [13], in [14], in assay [15], in assay [16] and in assay [17] was over 100 µM throughout. Moreover, the TGI in [18], in assay [19] and in assay [20] was over 100 µM each time.
For the compound `C#CCNC(=O)NCCCC(NC(C)=O)C(=O)NCc1ccccc1` (stereo not given), the TGI in assay [2], in assay [3], in assay [4], in [5], in assay [6] and in assay [10] was over 100 µM in each case. Besides, the TGI in [12], in assay [13], in assay [14], in assay [15], in assay [16] and in assay [17] was over 100 µM in each case. The TGI in assay [18], in assay [19] and in assay [20] was over 100 µM throughout.
Take `COC(=O)C1CCC(Nc2ccc(C)cc2C)=N1` (stereo not given): the TGI in [2], in assay [3], in [4], in assay [5], in [6] and in assay [10] was over 100 µM in each case. For the same compound, the TGI in [12], in assay [13], in assay [14], in assay [15], in assay [16] and in assay [17] was over 100 µM each time. The TGI in [18], in assay [19] and in assay [20] was over 100 µM each time.
